molecular target: T1, Rat Androgen Receptor (Rattus norvegicus, UniProt P15207); assay: Rat Androgen Receptor Binding (polarscreen AR competitor assay, fluorescence polarization); conditions: displacement of Fluormone AL Green, 4 hours at RT, read-out: AR rat-fluorimetric
T1 construct: purchased Life Technologies A15880
T1 sequence (P15207 646-902 limits assumed): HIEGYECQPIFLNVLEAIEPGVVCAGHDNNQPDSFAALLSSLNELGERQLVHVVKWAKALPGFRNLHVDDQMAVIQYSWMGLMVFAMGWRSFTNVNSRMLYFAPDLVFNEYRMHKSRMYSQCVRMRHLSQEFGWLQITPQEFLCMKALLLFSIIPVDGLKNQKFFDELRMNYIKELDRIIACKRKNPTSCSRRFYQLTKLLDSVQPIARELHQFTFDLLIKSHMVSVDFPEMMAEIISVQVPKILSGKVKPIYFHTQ
Experimental: Pharmacological Activity Rat Androgen Receptor Binding
The assay was carried out following the instructions of polarscreen AR competitor assay green kit (Life Technologies, Cat #.: A15880). Briefly, the test is based on measuring the changes of fluorescence polarization shown by the Fluormone AL Green. Thus, when the Fluormone is bound to the receptor, a fluorescence polarization is observed that diminishes when a ligand competes for the receptor binding site and the Fluormone gets displaced.
The inhibition values for each of the compounds are measured in duplicate at 1 and 10 μM and the plate is incubated for 4 hours at RT. Fluorescence polarization is the measured in a Tecan Infinite M1000 Pro reader (λexc=485 nm, λem=535 nm). In order to obtain a dose-response curve and calculate the potency of inhibition (expressed as IC50) for AR, a series of 1:10 dilutions in test in 1× buffer from 10 μM to 0.1 nM for each compound was carried out.

| IC50 [µM] | Structure (SMILES) |
| --- | --- |
| 0.1 to 1 | COCCC1=C(C(=O)OC)C(c2csc3ccccc23)C(C(C)=O)=C(C)N1 (stereo not drawn) [Example C7, Methyl 5-acetyl-4-(benzo[b]thiophen-3-yl)-2-(2-methoxyethyl)-6-methyl-1,4-dihydropyridine-3-carboxylate] |
| ≥ 1 | COCC1=C(C(C)=O)C(c2csc3ccccc23)C(C(=O)OC)=C(C)N1 (stereo not drawn) [Example C19, Methyl 5-acetyl-4-(benzo[b]thiophen-3-yl)-6-(methoxymethyl)-2-methyl-1,4-dihydropyridine-3-carboxylate] |
| < 0.1 | CC(=O)C1=C(C)NC(C)=C(C(=O)OCC2CC2)C1c1csc2ccc(F)cc12 (stereo not drawn) [Example C21, Cyclopropylmethyl 5-acetyl-4-(5-fluorobenzo[b]thiophen-3-yl)-2,6-dimethyl-1,4-dihydropyridine-3-carboxylate] |
| < 0.1 | CC(=O)C1=C(C)NC(C)=C(C(=O)OCC2CCCC2)C1c1csc2ccccc12 (stereo not drawn) [Example C23, Cyclopentylmethyl 5-acetyl-4-(benzo[b]thiophen-3-yl)-2,6-dimethyl-1,4-dihydropyridine-3-carboxylate] |
| < 0.1 | CC(=O)C1=C(C)NC(C)=C(C(=O)OC2CCCC2)C1c1csc2ccccc12 (stereo not drawn) [Example C26, Cyclopentyl 5-acetyl-4-(benzo[b]thiophen-3-yl)-2,6-dimethyl-1,4-dihydropyridine-3-carboxylate] |
| ≥ 1 | CC(=O)C1=C(C)NC(C)=C(C(=O)OC2CCC(C)(C)CC2)C1c1csc2ccccc12 (stereo not drawn) [Example C27, 4,4-dimethylcyclohexyl 5-acetyl-4-(benzo[b]thiophen-3-yl)-2,6-dimethyl-1,4-dihydropyridine-3-carboxylate] |
| 0.1 to 1 | CC(=O)C1=C(C)NC(C)=C(C(=O)OC2CCC2)C1c1csc2ccccc12 (stereo not drawn) [Example C28, Cyclobutyl 5-acetyl-4-(benzo[b]thiophen-3-yl)-2,6-dimethyl-1,4-dihydropyridine-3-carboxylate] |
| < 0.1 | COC(=O)C1=C(C(F)(F)F)NC(C)=C(C(C)=O)C1c1csc2ccc(F)cc12 (stereo not drawn) [Example C29, Methyl 5-acetyl-4-(5-fluorobenzo[b]thiophen-3-yl)-6-methyl-2-(trifluoromethyl)-1,4-dihydropyridine-3-carboxylate] |
| ≥ 1 | COC(=O)C1=C(N)NC(C)=C(C(=O)C2CC2)C1c1csc2ccccc12 (stereo not drawn) [Example D2, Methyl 2-amino-4-(benzo[b]thiophen-3-yl)-5-(cyclopropanecarbonyl)-6-methyl-1,4-dihydropyridine-3-carboxylate] |
| < 0.1 | COC(=O)C1=C(N)NC(C)=C(C(C)=O)C1c1csc2ccc(F)cc12 (stereo not drawn) [Example D3, Methyl 5-acetyl-2-amino-4-(5-fluorobenzo[b]thiophen-3-yl)-6-methyl-1,4-dihydropyridine-3-carboxylate] |
| ≥ 1 | CC(=O)C1=C(C)NC(C)=C(C(C)=O)C1c1csc2cc(O)ccc12 [Example G2, 1,1′-(4-(6-hydroxybenzo[b]thiophen-3-yl)-2,6-dimethyl-1,4-dihydropyridine-3,5-diyl)bis(ethan-1-one)] |
| ≥ 1 | COc1ccc2c(C3C(C(C)=O)=C(C)NC(C)=C3C(C)=O)csc2c1 [Example G3, 1,1′-(4-(6-Methoxybenzo[b]thiophen-3-yl)-2,6-dimethyl-1,4-dihydropyridine-3,5-diyl)diethanone] |
| ≥ 1 | CC(=O)C1=C(C2CC2)NC(C2CC2)=C(C(C)=O)C1c1csc2ccccc12 [Example G4, 1,1′-(4-(Benzo[b]thiophen-3-yl)-2,6-dicyclopropyl-1,4-dihydropyridine-3,5-diyl)diethanone] |
| < 0.1 | CC(=O)C1=C(C)NC(C)=C(C(C)=O)C1c1csc2ccc(Cl)cc12 [Example H1, 1,1′-(4-(5-chlorobenzo[b]thiophen-3-yl)-2,6-dimethyl-1,4-dihydropyridine-3,5-diyl)diethanone] |
| < 0.1 | CC(=O)C1=C(C)NC(C)=C(C(C)=O)C1c1csc2ccc(Br)cc12 [Example H2, 1,1′-(4-(5-bromobenzo[b]thiophen-3-yl)-2,6-dimethyl-1,4-dihydropyridine-3,5-diyl)diethanone] |
| ≥ 1 | CC(=O)C1=C(C)NC(C)=C(C(C)=O)C1c1csc2ccc(F)cc12 [Example H3, 1,1′-(4-(5-fluorobenzo[b]thiophen-3-yl)-2,6-dimethyl-1,4-dihydropyridine-3,5-diyl)bis(ethan-1-one)] |
| ≥ 1 | CC(=O)C1=C(C)NC(C)=C(C(C)=O)C1c1csc2ccc(N3CCOCC3)cc12 [Example H4, 1,1′-(2,6-dimethyl-4-(5-morpholinobenzo[b]thiophen-3-yl)-1,4-dihydropyridine-3,5-diyl)bis(ethan-1-one)] |
| ≥ 1 | CC(=O)C1=C(C)NC(C)=C(C(C)=O)C1c1csc2ccc(N3CCN(C)CC3)cc12 [Example H5, 1,1′-(2,6-dimethyl-4-(5-(4-methylpiperazin-1-yl)benzo[b]thiophen-3-yl)-1,4-dihydropyridine-3,5-diyl)bis(ethan-1-one)] |
| ≥ 1 | CC(=O)C1=C(C)NC(C)=C(C(C)=O)C1c1csc2ccc(NCc3ccccc3)cc12 [Example H6, 1,1′-(4-(5-(benzylamino)benzo[b]thiophen-3-yl)-2,6-dimethyl-1,4-dihydropyridine-3,5-diyl)bis(ethan-1-one)] |
| ≥ 1 | CC(=O)C1=C(C)NC(C)=C(C(C)=O)C1c1csc2ccc(C#N)cc12 [Example H7, 3-(3,5-diacetyl-2,6-dimethyl-1,4-dihydropyridin-4-yl)benzo[b]thiophene-5-carbonitrile] |
| ≥ 1 | CC(=O)C1=C(C)NC(C)=C(C(C)=O)C1c1csc2ccc(C(=O)O)cc12 [Example H8, 3-(3,5-diacetyl-2,6-dimethyl-1,4-dihydropyridin-4-yl)benzo[b]thiophene-5-carboxylic acid] |
| ≥ 1 | CC(=O)C1=C(C)NC(C)=C(C(C)=O)C1c1csc2ccc(C(=O)NC3CC3)cc12 [Example H9, N-cyclopropyl-3-(3,5-diacetyl-2,6-dimethyl-1,4-dihydropyridin-4-yl)benzo[b]thiophene-5-carboxamide] |
| ≥ 1 | CC(=O)C1=C(C)NC(C)=C(C(C)=O)C1c1csc2ccc(C(=O)NCC3CC3)cc12 [Example H10, N-(cyclopropylmethyl)-3-(3,5-diacetyl-2,6-dimethyl-1,4-dihydropyridin-4-yl)benzo[b]thiophene-5-carboxamide] |
| ≥ 1 | CC(=O)C1=C(C)NC(C)=C(C(C)=O)C1c1csc2ccc(C(=O)N3CCN(C)CC3)cc12 [Example H11, 1,1′-(2,6-Dimethyl-4-(5-(4-methylpiperazine-1-carbonyl)benzo[b]thiophen-3-yl)-1,4-dihydropyridine-3,5-diyl)bis(ethan-1-one)] |
| ≥ 1 | CC(=O)C1=C(C)NC(C)=C(C(C)=O)C1c1csc2ccc(C(=O)N3CCOCC3)cc12 [Example H12, 1,1′-(2,6-Dimethyl-4-(5-(morpholine-4-carbonyl)benzo[b]thiophen-3-yl)-1,4-dihydropyridine-3,5-diyl)bis(ethan-1-one)] |
| ≥ 1 | CC(=O)C1=C(C)NC(C)=C(C(C)=O)C1c1csc2ccncc12 [Example H13, 1,1′-(2,6-Dimethyl-4-(thieno[3,2-c]pyridin-3-yl)-1,4-dihydropyridine-3,5-diyl)bis(ethan-1-one)] |
| ≥ 1 | CC(=O)C1=C(C)NC(C)=C(C(C)=O)C1c1csc2cnccc12 [Example H14, 1,1′-(2,6-Dimethyl-4-(thieno[2,3-c]pyridin-3-yl)-1,4-dihydropyridine-3,5-diyl)bis(ethan-1-one)] |
